{"source": "patent US20080279957A1", "about": "“Immunomodulating compositions from bile” (Lorus Therapeutics Inc., priority 2000, published 2008)", "test_system": "human PBMN", "assay": "LPS-stimulated release of cytokines other than TNF by PBMN, LPS plus composition", "format": "cell-based", "conditions": "LPS (50 ng/ml) alone", "method": "In the studies of TNF, whole blood was drawn from 5 healthy subjects into heparinized Vacutainer tubes. Peripheral blood mononuclear cells (PBMNs) were isolated by gradient centrifugation on Ficoll-Hypaque (Pharmacia). The PBMN were washed twice with phosphate buffered saline (PBS), counted and resuspended in RPMI 1640 culture medium (Gibco Labs) at a concentration of 10^6 cells/0.5 ml. These cells were cultured in 24 well, flat-bottomed tissue culture plates (Falcon, Becton, Dickinson). […] The total volume was then made up to 1 ml/well with RPMI. As control, PBS was used instead of composition. The cells were cultured for 2, 6, 24, 48 and 72 hours at 37° C. in a humidified 5% CO2 incubator. At the end of each incubation period, the cells were harvested and cell free culture fluids were obtained by centrifugation at 9000 rpm for 10 minutes. The samples were then stored at −70° C. until ELISA for cytokines was carried out (within 2 weeks).\nExperiments were performed to determine whether the composition of the invention would impair LPS-stimulated release. […] The effects on the other cytokines IL-6, IL-8, IFN-gamma and GM-CSF were not as marked. However, in no instance did the compositions tested augment the effect of LPS stimulated release of cytokines.", "data": [{"substance": "Lipopolysaccharide [LPS]", "values": [{"measurement": "GM-CSF released", "result": "54 ± 65"}, {"measurement": "IFN-γ released", "result": "30 ± 24"}, {"measurement": "IL-6 released", "result": "2320 ± 1081"}, {"measurement": "IL-8 released", "result": "118 ± 62", "unit": "ng/mL"}, {"measurement": "IL-16 released", "result": "1314 ± 723"}, {"measurement": "IL-1α released", "setting": "six patients", "result": "129 ± 135"}]}]}
